Measured values as given in patent US11135263B2 (priority 2014, dated 2021).
“Also recorded” adds a separate entry of the source. Like-named read-outs stand apart in the source and are kept apart here.

How the values were obtained:
[1] = test system: avian influenza virus A/FPV/Bratislava/79 (H7N7); format: cell-based; conditions: for IV titers: 2 μM tamiflu vs Hepes, in absence or presence of S. aureus 6850; for virus titers: 18 hrs
S. aureus 6850 [2] = format: cell-based, Staphylococcus aureus
[3] = test system: influenza virus A/Puerto Rico/8/34 (H1N1); format: cell-based
S. aureus 6850 [4] = format: cell-based, Staphylococcus aureus; remark: listed apart in the source
[5] = test system: Human lung epithelial cells (A549); format: cell-based
[6] = test system: Staphylococcus aureus 6850; assay: mouse co-infection model, bacterial titers in lung homogenate; format: in vivo, Balb/C mice; conditions: S. aureus super-infection day 3, lungs day 4
Description: (§1) FIG. 17: Administration of U0126 leads to reduced bacterial titers in vivo independent of viral titers. 12 weeks old Balb/C mice were infected with 50 PFU of the influenza virus strain A/Puerto Rico/8/34 (PR8, H1N1) on day 0 (anesthesized with Isoflurane). Starting on day 1 mice were treated daily with i.p. injection of 30 mg/kg/day U0126 or solvent control (10% DMSO, 30% Cremophor EL, 60% PBS). On day 3 mice were infected with 5*10^7 CFU of Staphylococcus aureus 6850 under anesthesia with Isoflurane and directly treated with U0126 or solvent control. On day 4 lungs were removed and homogenized in PBS (0.1 g per 1000 μl PBS). For calculation of bacterial titers serial dilutions of the homogenate were plated on BHI agar. For determination of viral titers a standard plaque assay was performed. Statistical analysis was done using Mann-Whitney U Test (* p<0.05).
(§2) 8 weeks old Balb/C mice (5 per group) were infected with 50 PFU of influenza virus strain A/Puerto Rico/8/34 (PR8, H1N1) on day 0 (anesthesized with Isoflurane). 6 hrs post viral infection mice were treated with oral administration of 10 mg/kg/day Cobimetinib or solvent control (10% DMSO, 5% Tween 20, 85% PBS). Treatment was then performed daily. On day 3 mice were infected with 5*10^7 CFU of Staphylococcus aureus 6850 under anesthesia with Isoflurane and 6 hrs later treated with Cobimetinib or solvent control. […]

[7] = test system: influenza virus strain A/Puerto Rico/8/34 (PR8, H1N1); assay: mouse co-infection model, viral titers in lung homogenate (plaque assay); format: in vivo, Balb/C mice; conditions: lungs day 4
Description: as §1, §2

CCL3 = conditions: 50 μM U0126; H3N2 (MOI=5) with or without S. aureus 6850 (MOI=50); 8 hrs; preliminary results
CCL5 = conditions: 50 μM U0126; H3N2 (MOI=5) with or without S. aureus 6850 (MOI=50); 8 hrs; preliminary results
ERK-1/2 phosphorylation = conditions: 50 μM U0126; western blot, 8 hrs
S. aureus 6850 [8] = assay: bacterial internalisation (uptake) into A549 cells after 4 h preincubation; conditions: 2.5 ng/ml TNF-alpha, stimulation 4 hours prior bacterial infection; 120 min
S. aureus USA300 = assay: as above; conditions: 2.5 ng/ml TNF-alpha, stimulation 4 hours prior bacterial infection; MOI=5; 120 min
[9] = shown recently; cited from earlier work
[10] = […], U0126 50 μM, SB202190 10 μM or LG-ASA 5 mM vs solvent control
[11] = […], U0126 50 μM, SB202190 10 μM or LG-ASA 5 mM vs solvent control, listed as SB02190

For `CCOC(=O)C1=C[C@@H](OC(CC)CC)[C@H](NC(C)=O)[C@@H](N)C1` [Oseltamivir], the IV titers ([1]; MOI=0.001) was “significantly reduced”, the IV titers ([1]; MOI=0.001, listed as tamiflu) was “reduces” and the “intracellular bacterial amounts (S. aureus load)” value (S. aureus 6850 [2]) was “rather increased; also recorded: enhances”.

With `N#CC(=C(/N)Sc1ccccc1N)/C(C#N)=C(\N)Sc1ccccc1N` [U0126] the “IV replication (IV titers)” value [3] was “inhibitory effects; also recorded: reduces”, the “viral titers in presence of S. aureus” value [3] was “reduces” and the virus titers ([1]; 50 μM U0126 vs solvent, co-infection with S. aureus 6850 (MOI=0.1)) was “reduced”. The virus titers ([1]; 50 μM U0126 vs solvent, singular infection, MOI=0.01) was “significant reduction”, the “viral titers in presence of S. aureus” value ([1]; co-infection with S. aureus 6850 (MOI=0.5), virus MOI=0.001, 50 μM U0126 vs DMSO) was “reduces” and the “IV replication (IV titers)” value ([1]; singular infection, MOI=0.001, 50 μM U0126 vs DMSO) was “inhibitory effects; also recorded: reduces”. For the same compound, the “bacterial titers of internalized S. aureus 6850” value (S. aureus 6850 [2]) was “only slightly decreased”, the “intracellular amounts of S. aureus (S. aureus load)” value (S. aureus 6850 [2]) was “reduces” and the bacterial growth (S. aureus 6850 [4]) was “inhibited; also recorded: reduced”. For the same compound, the “bacterial titers without living cells” value (S. aureus 6850 [4]) was “reduced”, the “cell damage of cell layer (cell morphology)” value [5] was “much less damaged” and the “bacterial titers in vivo (lung)” value ([6]; U0126 30 mg/kg/day i.p. daily from day 1, 30 mg/kg/day) was “significantly reduced”. The “virus titers in vivo (lung)” value ([7]; U0126 30 mg/kg/day i.p. daily from day 1) was “fail of reduced virus titers”, the “IAV-induced CCL3 mRNA synthesis” value (CCL3) was “reduced” and the “IAV-induced CCL5 mRNA synthesis” value (CCL5) was “further reduced”. For the same compound, the “effect on MEK/ERK signalling (ERK1/2 phosphorylation)” value (ERK-1/2 phosphorylation) was “inhibitory effect” and the “viral protein synthesis (PB1)” value (viral protein (PB1)) was “reduction”.

For `O=C(NOCC1CC1)c1ccc(F)c(F)c1Nc1ccc(I)cc1Cl` [CI-1040, 2-(2-chloro-4-iodophenylamino)-N-(cyclopropylmethoxy)-3,4-difluorobenzamide], the virus titers ([1]; 10 μM CI-1040 vs solvent, singular and co-infection with S. aureus 6850 (MOI=0.1), MOI=0.01) was “reduction; also recorded: reduces”.

In the case of TNF-α, the “bacterial uptake upon NFκB activation” value (S. aureus 6850 [8]) was “enhanced uptake” and the “bacterial uptake upon NFκB activation” value (S. aureus USA300) was “enhanced uptake”.

In the case of `Oc1ccc(-c2nc(-c3ccncc3)c(-c3ccc(F)cc3)[nH]2)cc1` [SB202190], the “IV replication (IV titers)” value [3, 10] was “reduces”, the “viral titers in presence of S. aureus” value [3, 10] was “reduces” and the “IV replication (IV titers)” value [3, 11] was “inhibitory effects”. For the same compound, the “viral titers in presence of S. aureus” value [3, 11] was “reduced”.

In the case of `O=C(c1ccc(F)c(F)c1Nc1ccc(I)cc1F)N1CC(O)([C@@H]2CCCCN2)C1` [Cobimetinib, [3,4-difluoro-2-[(2-fluoro-4-iodophenyl)amino]phenyl] [3-hydroxy-3-[(2S)-2-piperidinyl]-1-azetidinyl]methanone], the “bacterial titers in vivo (lung)” value ([6]; Cobimetinib 10 mg/kg/day oral, daily) is listed as “slight but clearly detectable reduction; also recorded: reduces”, the “viral titers in vivo (lung)” value ([7]; Cobimetinib 10 mg/kg/day oral, daily from 6 hrs post viral infection) is listed as “slight but clearly detectable reduction; also recorded: reduces” and the maximal tolerated dose [9] is listed as 30 mg/kg/day.
